For data set [1] the following is noted: powdered form, room temperature; cited from earlier work.
The conditions of data set [2]: cited from earlier work.
Data set [3] can be described thus: Toxic dose of local anesthetics on intravascular absorption. As to conditions: inferred from immediate hydrolysis on contact with blood.
Excerpt: Short duration local anesthetics are generally used in 1%-2% concentrations. Current applications for short duration local anesthetics are dictated by toxicity; these toxicities vary by drug. […] Intravascular injection or a toxic dosage carries the risk of potential complications such as cardiac arrhythmias or seizures.
Total dose is adjusted to the specific purpose for the local anesthetic administration.
For data set [4] the following is noted: contact with blood; cited from earlier work.
The conditions of data set [5]: cited from earlier work; for major nerve block duration: reportedly.
The conditions of data set [6]: with or without epinephrine; cited from earlier work.

Turning to `CCCCNc1ccc(C(=O)OCCN(C)C)cc1` [tetracaine], the stability result in data set [1] was “stable at room temperature”. In data set [2] (0.2% concentration), the motor blockade entry is “minimal motor blockade” and the neurotoxicity result is reported as “not neurotoxic”. For the same compound, in data set [2] (applied directly to nerve structures), the toxic concentration is 1%. Moreover, in data set [3], the actual toxic dose entry was “higher than 5 mg/kg”. Moreover, in data set [4], the metabolism in blood result is listed as “immediately metabolized in contact with blood”.
Regarding `CCCN(CC)C(CC)C(=O)Nc1c(C)cccc1C` (stereo not shown) [etidocaine], the “major nerve block duration” value in data set [5] was “three to twelve”.
In the case of `CCCCN1CCCCC1C(=O)Nc1c(C)cccc1C` (stereo not shown) [bupivacaine], the toxic dose in data set [6] is recorded as 2.5 mg per kg. Further, the “major nerve block duration” value in data set [5] was “three to twelve”. The analgesic duration in data set [5] (transversus abdominis plane (TAP) block, 30-35 ml per side, abdominal procedures) is 12 to 16 h.

The values above are taken from patent publication US11564902B2, “Extended duration local anesthetic formulation” (Ventis Pharma, priority 2015, dated 2023).
